The values that follow come from patent US6710090B2, “Inhibitory or blocking agents of molecular generating and/or inducing functions” (priority 1994, dated 2004).

The assay concerns single strand DNA, double strand DNA and mRNA of E. coli bacteriophage. Kind of assay: Antiviral effect, E. coli bacteriophage structure and infection, electron microscopes. In kind it is cell-based. As to the method:
In order to investigate the effect on virus, changes in structure of single strand DNA, double strand DNA and mRNA of E. coli bacteriophage (1 ml of 1 mol solution), which were prepared as non-treated sample and treated sample with 4 μl of Yoshixol, were observed by scanning and transmission electron microscopes. In addition, according a general bacteriological technique, changes in proliferation and in morphological aspect (by scanning and transmission electron microscopes) of E. Coli, which was infected by single strand DNA, double strand DNA or mRNA, were investigated before and after treatment of each phage with Yoshixol. As treated samples, 4 μl of Yoshixol was added in 1 ml of each phage solution which concentration was adjusted to 1 mol. […] In addition, an effect of Yoshixol on chicken myeloblastosis virus (AMV) reverse transcriptase (Gibco Co. Getesburg, Md., USA) was investigated by measuring amount of cDNA synthesis, which was amplified by PCR of RNA(5 μg) and AMV reverse transcriptase (25 units). As treated group, 0.01 μl of Yoshixol was added to 25 units sample of the AMV reverse transcriptase. Thus, the expected production of cDNA was obtained in the non-treated group, however, the amount of cDNA production decreased to 10% of the expected one when Yoshixol was treated (referred FIG. 15).

The structures appear in SMILES notation.

On to `C=C1CC(C)(C)C=CC1=O` [Yoshixol, 4,4-dimethyl-6-methylene-2-cyclohexen-1-one], for which the “helical and multi-dimensional structure of single strand DNA, double strand DNA and mRNA” value (4 μl of Yoshixol in 1 ml phage solution (1 mol), electron microscopes) is “became a simple structure”. Besides, the “adhesion of the phage on the bacterial surface and/or intrabacterial existence” value (E. coli infected with phage treated with Yoshixol) is reported as “not in the treated group”.
